We go through one compound from patent publication US7560473B2 (Institute of Pharmacology and Toxicology Academy of …, priority 2001, dated 2009).

This assay concerns the target T1, ATP-sensitive potassium channels in vascular smooth muscles (Rattus norvegicus, UniProt Q63563).
T1 construct: The aorta was cut into about 3-5 mm arterial rings and the vascular endothelium was scraped off; from tissue; host or cells: endothelium-removed aortic rings of male Wistar rats
Kind of assay: Association kinetics of [^3H]P1075 binding in aortic rings. Also on record: species or system Wistar rat. The conditions noted are these: 37° C.; drug M: Compound 1 10^−4, Glibencamide 10^−5, ATP 10^−2, ADP 10^−3, UDP 5 × 10^−5, GTP 10^−3, Ade 10^−3; control 4.36 ± 0.45; means ± SD, n = 4~10. The text has this:
Biological activity experiment 4. Allosteric regulation of novel compounds on ATP-sensitive potassium channels in vascular smooth muscles.
To study the allosteric regulation of compound 1 on ATP-sensitive potassium channels in vascular smooth muscles, the radio-labled-ligand was used in the biological activity experiment 4.
1. The allosteric regulation of compound 1 on the binding sites for the selective KATP blocker glibenclamide in vascular smooth muscles was studied as follows: After decapitated, the male Wistar rat (340±20 g) was immediately incised open the thoracic cavity. The aorta was dissected and immersed in the 4° C. buffer containing 10 mM HEPES to wash off the blood, then carefully extirpated the fat, peripheral connective tissues and thrombus. The aorta was cut into about 3-5 mm arterial rings and the vascular endothelium was scraped off with wet tampon. The arterial rings were blotted, weighted and transferred into the tubes containing proper amount of ice colded physiological saline buffer. In the association kinetics experiment, the arterial circles in the tubes were incubated with, compound 1(10^−4M), pinacidil(10^−4M), ATP(10^−2M), ADP(10^−3M), Ade(10^−3M), […] and equal volume of buffer respectively for 10 min in 25° C. water bath, and then added [^3H]-glibenclamide(3 nM). At 5,10,15,20,30,60,90 and 120 min after incubation, 9 mL ice colded Tris buffer (50 mM) was added to terminate the reaction. After washing off the free and bound [^3H]-glibenclamide, the aorta was blotted, transferred to a scintillator, added 50 uL 30% H2O2 and reacted for 2 h at 80° C. After cooling, 2.5 mL ethyl glycol and 5 mL 1% B-BPD xylene were added in sequence, kept stationary for 8 h and measured under a scintillometer for cpm value. The resulting data were fit into a regression line with In[BEQ/(BEQ-Bt)]vs.t and the parameters for association kinetics were obtained. In the disassociation kinetics experiments, the aorta treated as described above and [^3H]-glibenclamide were incubated for 60 min at 25° C., and then 30 uM glibenclamide was added. 0,5,15,30,60,90 and 120 min later, the cpm values for the complex of [^3H]-glibenclamide and KATP were measured. The resulting data were fit into a regression line with In(B/BEQ)]vs.t and the parameters for disassociation kinetics were obtained. 2. The allosteric regulation of compound 1 on the binding sites for the selective KATP activator P1075 in vascular smooth muscles was studied with the method as described above, but some conditions should be changed as follows: the incubation temperature was 37° C. instead of 25° C.;P1075 was used instead of glibenclamide; In the association kinetics experiments, the time points for sampling were 5,10,15,20,30,45,60 and 90 min, while in the disassociation kinetics experiments, that were 1,3,5,10,20,30,45 and 60 min. Biological activity experiment 5. The effects of compound 1 on the specific binding of high selective activator [^3H]P1075 with ATP-sensitive potassium channels in vascular smooth muscles.

Molecules are shown by their SMILES.

T1 sequence (Q63563 1-1545 isoform Q63563-2): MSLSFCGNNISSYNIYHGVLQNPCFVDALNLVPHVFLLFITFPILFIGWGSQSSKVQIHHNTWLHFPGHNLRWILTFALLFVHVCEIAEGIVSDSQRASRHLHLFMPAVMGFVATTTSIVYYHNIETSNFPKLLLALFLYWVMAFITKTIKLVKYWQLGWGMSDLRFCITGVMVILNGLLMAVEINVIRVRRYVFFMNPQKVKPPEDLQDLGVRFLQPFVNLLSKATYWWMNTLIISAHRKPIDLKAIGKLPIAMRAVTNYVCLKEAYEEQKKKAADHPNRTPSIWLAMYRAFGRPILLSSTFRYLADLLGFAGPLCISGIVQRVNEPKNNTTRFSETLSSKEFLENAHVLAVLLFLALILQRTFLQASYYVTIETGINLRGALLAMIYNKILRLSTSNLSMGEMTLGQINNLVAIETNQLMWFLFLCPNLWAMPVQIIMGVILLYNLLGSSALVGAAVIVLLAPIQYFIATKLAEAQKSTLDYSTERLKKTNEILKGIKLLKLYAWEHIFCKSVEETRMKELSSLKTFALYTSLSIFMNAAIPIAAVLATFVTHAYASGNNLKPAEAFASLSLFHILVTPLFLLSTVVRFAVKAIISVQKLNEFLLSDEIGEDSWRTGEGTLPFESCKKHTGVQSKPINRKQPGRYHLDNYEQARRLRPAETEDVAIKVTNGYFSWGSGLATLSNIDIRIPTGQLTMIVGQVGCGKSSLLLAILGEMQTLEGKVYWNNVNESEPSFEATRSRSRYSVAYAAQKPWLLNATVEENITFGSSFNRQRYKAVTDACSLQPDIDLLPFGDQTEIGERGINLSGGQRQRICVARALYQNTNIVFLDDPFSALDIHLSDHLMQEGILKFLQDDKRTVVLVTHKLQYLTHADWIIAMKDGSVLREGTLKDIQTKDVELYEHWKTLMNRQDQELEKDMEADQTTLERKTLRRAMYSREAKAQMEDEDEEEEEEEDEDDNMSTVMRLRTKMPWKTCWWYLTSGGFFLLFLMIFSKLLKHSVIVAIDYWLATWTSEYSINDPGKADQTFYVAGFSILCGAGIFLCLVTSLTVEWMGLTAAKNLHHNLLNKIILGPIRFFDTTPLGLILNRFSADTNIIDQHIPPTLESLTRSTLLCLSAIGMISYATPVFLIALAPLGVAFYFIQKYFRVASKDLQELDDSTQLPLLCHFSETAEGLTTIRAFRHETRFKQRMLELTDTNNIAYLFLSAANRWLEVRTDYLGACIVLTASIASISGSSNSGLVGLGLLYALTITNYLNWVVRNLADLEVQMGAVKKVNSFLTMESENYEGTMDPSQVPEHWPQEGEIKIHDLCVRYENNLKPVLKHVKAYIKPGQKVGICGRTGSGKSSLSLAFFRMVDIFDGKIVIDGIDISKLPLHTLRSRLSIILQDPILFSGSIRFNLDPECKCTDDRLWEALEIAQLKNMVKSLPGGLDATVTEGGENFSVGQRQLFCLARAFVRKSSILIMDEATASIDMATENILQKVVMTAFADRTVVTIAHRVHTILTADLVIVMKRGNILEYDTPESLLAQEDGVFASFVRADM
T1 sequence (Q63664 whole entry partner): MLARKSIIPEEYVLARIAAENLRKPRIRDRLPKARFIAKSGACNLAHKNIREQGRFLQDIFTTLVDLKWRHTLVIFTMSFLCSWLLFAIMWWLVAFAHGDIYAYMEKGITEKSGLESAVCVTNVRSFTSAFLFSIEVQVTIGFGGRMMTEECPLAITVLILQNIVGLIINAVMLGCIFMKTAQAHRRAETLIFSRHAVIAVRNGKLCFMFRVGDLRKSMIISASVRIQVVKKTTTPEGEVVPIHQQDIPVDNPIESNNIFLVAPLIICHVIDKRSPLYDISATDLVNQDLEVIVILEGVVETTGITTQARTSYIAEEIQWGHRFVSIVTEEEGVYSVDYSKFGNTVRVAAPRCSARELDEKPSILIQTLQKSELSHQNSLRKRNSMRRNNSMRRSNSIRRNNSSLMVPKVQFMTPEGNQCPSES

Take `CC(C)NC(C)(C)C(C)C` [compound 1, N-(1-methylethyl)-2,3-dimethyl-2-butylamine]: the “Association kinetics kobs of [^3H]P1075 binding” value is recorded as 2.44 ± 0.80 ×10^−2 nM^−1 · min^−1.
